Laboratory results: US6448294B1, “Biphenyl compounds and their use as oestrogenic agents” (Aventis Pharma S.A., priority 1996, dated 2002)

Molecular target: T1, recombinant human oestrogen receptor (Homo sapiens, UniProt P03372)
T1 construct: made in house; host or cells: SF9 insect cells (ATCC CRL1711), baculovirus
T1 sequence (P03372 1-595): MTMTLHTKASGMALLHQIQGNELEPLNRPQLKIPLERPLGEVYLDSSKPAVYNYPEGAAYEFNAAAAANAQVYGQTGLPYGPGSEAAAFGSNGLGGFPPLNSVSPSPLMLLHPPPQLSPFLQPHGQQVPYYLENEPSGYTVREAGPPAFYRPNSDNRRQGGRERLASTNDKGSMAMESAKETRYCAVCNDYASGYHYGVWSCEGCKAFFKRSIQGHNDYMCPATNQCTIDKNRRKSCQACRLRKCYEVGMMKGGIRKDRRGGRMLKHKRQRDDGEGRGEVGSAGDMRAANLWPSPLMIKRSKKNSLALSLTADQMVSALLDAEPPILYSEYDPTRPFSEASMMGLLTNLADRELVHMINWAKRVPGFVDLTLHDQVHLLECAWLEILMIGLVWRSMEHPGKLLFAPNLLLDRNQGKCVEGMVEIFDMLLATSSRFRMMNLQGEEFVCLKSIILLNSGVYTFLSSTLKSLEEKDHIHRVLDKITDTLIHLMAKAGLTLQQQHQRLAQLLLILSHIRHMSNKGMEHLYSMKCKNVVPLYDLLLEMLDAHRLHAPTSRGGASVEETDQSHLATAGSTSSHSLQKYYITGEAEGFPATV
Assay: Human oestrogen receptor (HOR) competitive binding with tritiated oestradiol, relative bond affinity (RBA)
Conditions: RBA=100(CH)/(CX), incubation at 0° C. for 24 hours, cytosolic extract of SF9 cells
From the text: A cytosolic extract of SF9 cells containing the recombinant human oestrogen receptor is obtained by overexpression in an insect-Baculovirus cell system, according to the general methodology described by N. R. WEBB et al. (Journal of Methods in Cell and Molecular Biology, (1990) Vol.2 No. 4, 173-188) and the application of which is described for the expression of human hormonal receptors, for example the human glucocorticoid receptor (G. SRINIVASAN et al. Molecular Endocrinology (1990) vol 4 No. 2 209-216).
The BaculoGold Transfection Kit (PharMingen, reference 21000K) is used to generate the recombinant baculovirus containing the cDNA fragment described in the expression vector HEGO by L. TORA et al. (The EMBO Journal (1989) vol. 8 No. 7 1981-1986), containing the region coding for the wild-type human oestrogen receptor with a glycine in position 400. […]
The supernatant is incubated at 0° C. for 24 hours with a constant concentration (T) of tritiated oestradiol in the presence of increasing concentrations of either unlabelled oestradiol (0-1000×10^−9M), or of unlabelled product to be tested (0-25000×10^−9M). The concentration of bound tritiated oestradiol (B) is then measured in each incubate by the technique of adsorption with carbon dextran. […]
The relative bond affinity (RBA) of the test product is calculated by the equation: RBA=100(CH)/(CX).

| Relative bond affinity (RBA), HOR, oestradiol = 100, 24 hours | Compound |
| --- | --- |
| 49 | Oc1ccc(-c2ccc3cc(O)ccc3c2Cl)cc1 [Example 2, 5-Chloro-6-(4-hydroxyphenyl)-2-naphthalenol] |
| 28 | CN(C)CCOc1ccc(-c2c(-c3ccc(O)cc3)ccc3cc(O)ccc23)cc1 [Example 1, 5-[-4-[2-(Dimethylamino)ethoxy]phenyl] 6-(4-Hydroxyphenyl) 2-Naphthalenol] |
